Experimental data as given in ChEMBL document CHEMBL4613250, “Discovery of 4-((2S,4S)-4-Ethoxy-1-((5-methoxy-7-methyl-1H-indol-4-yl)methyl)piperidin-2-yl)benzoic Acid (LNP023), a Factor B Inhibitor Specifically Designed To Be Applicable to Treating a Diverse Array of Complement Mediated Diseases” (J Med Chem, 2020).
Converted amounts (≈) assume the structure as drawn.

Assays:
[1] = Clearance in Wistar Han rat at 1 mg/kg, iv after 0.5 to 24 hrs by HPLC-MS/MS analysis; format: ADME, organism-based; conditions: in vivo
[2] = AUC/dose in beagle dog at 10 mg/kg, po after 15 mins to 24 hrs by HPLC-MS/MS analysis; format: ADME, organism-based, Canis lupus familiaris; conditions: in vivo
[3] = Volume of distribution at steady state in beagle dog at 0.1 mg/kg, iv after 15 mins to 24 hrs by HPLC-MS/MS analysis; format: ADME, organism-based, Canis lupus familiaris; conditions: in vivo, read-out: Vdss
[4] = Oral bioavailability in beagle dog at 10 mg/kg after 15 mins to 24 hrs by HPLC-MS/MS analysis; format: ADME, organism-based, Canis lupus familiaris; conditions: in vivo
[5] = Half life in beagle dog at 0.1 mg/kg, iv after 15 mins to 24 hrs by HPLC-MS/MS analysis; format: ADME, organism-based, Canis lupus familiaris; conditions: in vivo
[6] = Mean residence time in Wistar Han rat at 1 mg/kg, iv after 0.5 to 24 hrs by HPLC-MS/MS analysis; format: ADME, organism-based; conditions: in vivo
[7] = Mean residence time in beagle dog at 0.1 mg/kg, iv after 15 mins to 24 hrs by HPLC-MS/MS analysis; format: ADME, organism-based, Canis lupus familiaris; conditions: in vivo
[8] = AUC/dose in Wistar Han rat at 1 mg/kg, iv after 0.5 to 24 hrs by HPLC-MS/MS analysis; format: ADME, organism-based; conditions: in vivo
[9] = Cmax/dose in beagle dog at 10 mg/kg, po after 15 mins to 24 hrs by HPLC-MS/MS analysis; format: ADME, organism-based, Canis lupus familiaris; conditions: in vivo
[10] = species: Canis familiaris; assay: animal or person; conditions: Canis lupus familiaris, beagle, po, 12 h, read-out: INH
[11] = Clearance in beagle dog at 0.1 mg/kg, iv after 15 mins to 24 hrs by HPLC-MS/MS analysis; format: ADME, organism-based, Canis lupus familiaris; conditions: in vivo
[12] = Oral bioavailability in Wistar Han rat at 30 mg/kg after 0.5 to 24 hrs by HPLC-MS/MS analysis; format: ADME, organism-based; conditions: in vivo
[13] = Tmax in beagle dog at 10 mg/kg, po after 15 mins to 24 hrs by HPLC-MS/MS analysis; format: ADME, organism-based, Canis lupus familiaris; conditions: in vivo
[14] = species: Canis familiaris; assay: animal or person; conditions: Canis lupus familiaris, beagle, po, 6 h, read-out: INH
[15] = AUC/dose in Wistar Han rat at 30 mg/kg, po after 0.5 to 24 hrs by HPLC-MS/MS analysis; format: ADME, organism-based; conditions: in vivo
[16] = Tmax in Wistar Han rat at 30 mg/kg, po after 0.5 to 24 hrs by HPLC-MS/MS analysis; format: ADME, organism-based; conditions: in vivo
[17] = Volume of distribution at steady state in Wistar Han rat at 1 mg/kg, iv after 0.5 to 24 hrs by HPLC-MS/MS analysis; format: ADME, organism-based; conditions: in vivo, read-out: Vdss
[18] = AUC/dose in beagle dog at 0.1 mg/kg, iv after 15 mins to 24 hrs by HPLC-MS/MS analysis; format: ADME, organism-based, Canis lupus familiaris; conditions: in vivo
[19] = Cmax/dose in Wistar Han rat at 30 mg/kg, po after 0.5 to 24 hrs by HPLC-MS/MS analysis; format: ADME, organism-based; conditions: in vivo
[20] = Half life in Wistar Han rat at 1 mg/kg, iv after 0.5 to 24 hrs by HPLC-MS/MS analysis; format: ADME, organism-based; conditions: in vivo
[21] = Oral bioavailability in C57BL/6 mouse at 10 mg/kg after 5 mins to 7 hrs by HPLC-MS/MS analysis; format: ADME, organism-based; conditions: C57BL/6, mouse, in vivo
[22] = target: T1, Alpha-2C adrenergic receptor (Homo sapiens, UniProt P18825); assay: Inhibition of adrenergic receptor alpha2c (unknown origin)
T1 sequence (P18825 whole entry): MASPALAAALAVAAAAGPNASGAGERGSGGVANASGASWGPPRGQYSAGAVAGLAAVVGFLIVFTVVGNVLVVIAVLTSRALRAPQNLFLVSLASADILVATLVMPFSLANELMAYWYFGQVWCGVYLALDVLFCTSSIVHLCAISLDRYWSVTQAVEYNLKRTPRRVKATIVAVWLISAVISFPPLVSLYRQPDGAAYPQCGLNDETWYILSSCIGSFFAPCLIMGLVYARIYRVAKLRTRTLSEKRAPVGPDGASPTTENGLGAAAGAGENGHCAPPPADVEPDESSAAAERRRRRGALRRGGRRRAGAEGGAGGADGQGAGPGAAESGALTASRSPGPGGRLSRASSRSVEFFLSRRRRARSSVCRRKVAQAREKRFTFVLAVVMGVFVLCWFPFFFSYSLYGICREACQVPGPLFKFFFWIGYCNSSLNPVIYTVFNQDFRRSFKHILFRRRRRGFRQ

[23] = Apparent permeability across apical to basolateral side in human Caco2 cells; format: ADME, cell-based; conditions: Caco-2
[24] = Intrinsic clearance in human liver microsomes; format: ADME, Microsome; conditions: read-out: CLH
[25] = AUC (0 to last) in C57BL/6 mouse at 10 mg/kg, po after 7 hrs by HPLC-MS/MS analysis; format: ADME, organism-based; design: dose 10 mg/kg, time 0 - last, route oral; conditions: C57BL/6, mouse, in vivo
[26] = Mean residence time in C57BL/6 mouse at 1 mg/kg, iv after 5 mins to 7 hrs by HPLC-MS/MS analysis; format: ADME, organism-based; conditions: mouse, in vivo
[27] = Equilibrium high throughput solubility in aqueous buffer at pH 6.8; format: physicochemical
[28] = target: T2, Alpha-1A adrenergic receptor (Homo sapiens, UniProt P35348); assay: Inhibition of adrenergic receptor alpha1a (unknown origin)
T2 sequence (P35348 whole entry): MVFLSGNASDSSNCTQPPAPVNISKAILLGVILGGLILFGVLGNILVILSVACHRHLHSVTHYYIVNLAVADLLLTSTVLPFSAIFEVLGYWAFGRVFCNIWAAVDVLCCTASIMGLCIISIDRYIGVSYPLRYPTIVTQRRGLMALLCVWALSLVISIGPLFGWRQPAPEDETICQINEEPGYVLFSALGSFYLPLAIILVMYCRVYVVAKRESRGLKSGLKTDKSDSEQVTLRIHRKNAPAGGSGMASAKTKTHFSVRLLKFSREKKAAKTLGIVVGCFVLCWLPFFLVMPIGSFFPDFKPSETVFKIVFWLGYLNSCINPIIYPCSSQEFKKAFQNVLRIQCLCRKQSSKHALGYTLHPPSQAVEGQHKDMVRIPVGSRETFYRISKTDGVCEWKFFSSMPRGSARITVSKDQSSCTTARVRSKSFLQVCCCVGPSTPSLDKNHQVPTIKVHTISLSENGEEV

[29] = target: Voltage-gated inwardly rectifying potassium channel KCNH2 (Homo sapiens, UniProt Q12809); assay: Inhibition of human ERG by radioligand binding assay
Chain of Voltage-gated inwardly rectifying potassium channel KCNH2 (Q12809 whole entry): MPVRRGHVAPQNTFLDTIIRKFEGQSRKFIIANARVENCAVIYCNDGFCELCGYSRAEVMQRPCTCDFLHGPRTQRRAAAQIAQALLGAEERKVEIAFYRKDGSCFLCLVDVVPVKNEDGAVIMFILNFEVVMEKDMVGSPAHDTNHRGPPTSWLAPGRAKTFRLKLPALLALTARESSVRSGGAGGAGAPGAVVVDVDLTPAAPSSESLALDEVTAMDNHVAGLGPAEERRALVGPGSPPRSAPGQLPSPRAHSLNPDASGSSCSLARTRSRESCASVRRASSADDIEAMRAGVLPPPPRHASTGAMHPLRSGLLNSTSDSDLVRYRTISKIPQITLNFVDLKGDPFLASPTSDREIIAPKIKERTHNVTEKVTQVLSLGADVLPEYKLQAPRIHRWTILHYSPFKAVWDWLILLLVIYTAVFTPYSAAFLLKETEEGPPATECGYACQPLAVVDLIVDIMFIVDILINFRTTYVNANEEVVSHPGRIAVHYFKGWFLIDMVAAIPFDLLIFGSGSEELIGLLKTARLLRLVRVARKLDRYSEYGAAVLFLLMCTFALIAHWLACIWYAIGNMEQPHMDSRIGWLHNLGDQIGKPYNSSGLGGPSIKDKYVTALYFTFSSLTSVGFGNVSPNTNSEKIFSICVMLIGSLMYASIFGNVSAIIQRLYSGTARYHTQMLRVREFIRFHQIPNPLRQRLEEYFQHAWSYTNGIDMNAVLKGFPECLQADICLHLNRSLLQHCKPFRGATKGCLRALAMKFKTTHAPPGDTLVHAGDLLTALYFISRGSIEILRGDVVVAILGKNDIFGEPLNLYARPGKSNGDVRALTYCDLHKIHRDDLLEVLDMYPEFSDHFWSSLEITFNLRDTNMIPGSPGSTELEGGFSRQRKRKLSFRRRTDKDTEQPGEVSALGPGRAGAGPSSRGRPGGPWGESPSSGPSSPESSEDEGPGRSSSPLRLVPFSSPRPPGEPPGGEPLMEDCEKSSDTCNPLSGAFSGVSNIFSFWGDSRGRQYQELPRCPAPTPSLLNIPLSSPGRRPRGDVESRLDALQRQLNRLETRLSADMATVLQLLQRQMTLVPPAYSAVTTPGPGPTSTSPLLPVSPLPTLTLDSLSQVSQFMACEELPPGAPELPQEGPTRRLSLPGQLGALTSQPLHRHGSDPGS

[30] = Volume of distribution at steady state in C57BL/6 mouse at 1 mg/kg, iv after 5 mins to 7 hrs by HPLC-MS/MS analysis; format: ADME, organism-based; conditions: mouse, in vivo
[31] = Apparent permeability across basolateral to apical side in human Caco2 cells; format: ADME, cell-based; conditions: Caco-2
[32] = Intrinsic clearance in mouse liver microsomes; format: ADME, Microsome; conditions: read-out: CLH
[33] = Half life in C57BL/6 mouse at 1 mg/kg, iv after 5 mins to 7 hrs by HPLC-MS/MS analysis; format: ADME, organism-based; conditions: C57BL/6, mouse, in vivo
[34] = Cmax in C57BL/6 mouse at 10 mg/kg, po after 5 mins to 7 hrs by HPLC-MS/MS analysis; format: ADME, organism-based; design: dose 10 mg/kg, route oral; conditions: in vivo

CCO[C@H]1CCN(Cc2c(OC)cc(C)c3[nH]ccc23)[C@H](c2ccc(C(=O)O)cc2)C1.Cl
clearance [1]: 8 mL/min/kg | AUC/dose [2]: 12700 nM·h | Vd [3]: 0.6 L/kg | bioavailability [4]: 60% | half-life [5]: 5.6 h | MRT [6]: 3.4 h | MRT [7]: 5.5 h | AUC/dose [8]: 5200 nM·h | Cmax/dose [9]: 2.2 µM | inhibition in vivo at 3 mg/kg [10]: 55% | clearance [11]: 2 mL/min/kg | bioavailability [12]: 40% | Tmax [13]: 0.8 h | inhibition in vivo at 3 mg/kg [14]: 100% | AUC/dose [15]: 2100 nM·h | Tmax [16]: 2 h | Vd [17]: 2.3 L/kg | AUC/dose [18]: 21000 nM·h | Cmax/dose [19]: 0.41 µM | half-life [20]: 7 h

Cc1cc(C)c2[nH]ccc2c1CN1CCCCC1c1ccc(C(=O)O)cc1 (centres undefined)
bioavailability [21]: 47% | IC50 [22]: > 30 µM | Papp A→B [23]: 16.6 ×10⁻⁶ cm/s | microsomal CLint [24]: 54.1 µL/min/mg | AUC(0-t) at 7 h [25]: 17.1 µM·h | MRT [26]: 2.3 h | solubility thermodynamic [27]: 980 µM (≈ 355 µg/mL) | IC50 [28]: > 30 µM | IC50 [29]: > 30 µM | Vdss [30]: 3.1 L/kg | Papp B→A [31]: 0.6 ×10⁻⁶ cm/s | microsomal CLint [32]: < 3.4 µL/min/mg | half-life [33]: 4.9 h | Cmax [34]: 5.41 µM
